Laboratory results as given in patent EP0429304A2, “Pyridone-carboxylic acid derivatives and their use as veterinary medicines” (SHIONOGI SEIYAKU KABUSHIKI KAISHA trading under the name of …, priority 1989, dated 1991).
Like-named read-outs stand apart in the source and are kept apart here.

Tests used:
[1] = test system: Pasteurella piscicida (P.pis) No. 2; test: In vitro sensitivity test; assay type: cell-based; settings: 25°C, 40 to 48 hours
Experimental: (§1) Survey of the sensitivity of the compound (I) to various strains of microorganisms was performed by a liquid dilution method […] an agar dilution method, in which the bacteria used were of animal origin and included the following strains (15 strains out of 11 bacteria): Chicken-origin strain: Mycoplasma gallisepticum (MG), Mycoplasma synoviae (MS), Hemophilus paragallinarum (H.pg) and Escherichia coli (E.coli); Pig-origin strain: Mycoplasma hyopneumoniae (Mh), Hemophilus pleuropneumonia (H.pp) and Bordetella bronchiseptica (B.br); Fish-origin strain: Pasteurella piscicida (P.pis) and Streptococcus sp (Str.sp); others: Escherichia coli (E. coli), Salmonella typhimurium (S.typhi) and Staphylococcus aureus (S.au).
(§2) Of these bacteria, the strains belonging to MG, MS and Mh were cultured at 37°C for 7 days by a liquid dilution method, of which the culture medium comprised: 12 % horse-serum added "PPLO" (agar manufactured by Difco) medium for MG; 12 % pig-serum, 0.01 % βNAD (nicotinamide adenine dinucleotide) added Frey medium for MS; 0.5 % lactoalbumin added Hank's solution, 10 % horse-serum, 0.5 % yeast extract (25 %) for Mh, and the agar dilution method was applied to the strains belonging to H.pg, H.pp, S.typhi, E.coli, S.au and B.br. Specifically, the H.pg strain was cultured in a 5 % chicken-serum added chicken bouillon medium and the H.pp strain was cultured in a heart infusion agar added with 10 % sheep defibered blood and 0.05 % βNAD. In case of the H.pg and P.pp strains, observation was made after cultivation at 37°C for 20 hours under 10 % CO₂. Mueller Hinton agar (Difco) was used for the strains belonging to S.typhi, E.coli, S.au and B.br, and observation was made after cultivation at 37°C for 20 to 24 hours. P.pis and Str.sp, both being of fish-origin, were respectively cultured at 25°C for 40 to 48 hours in a 1.5 % NaCl added heart infusion agar and in a sensitive disk medium.

[2] = test system: Streptococcus sp (Str.sp) SNO6119; test: In vitro sensitivity test; assay type: cell-based; settings: 25°C, 40 to 48 hours
Experimental: as §1, §2

[3] = test system: Hemophilus paragallinarum (H.pg) 221; test: In vitro sensitivity test (agar dilution method); assay type: cell-based
Experimental: as §1, §2

[4] = test system: Escherichia coli (E.coli) JC-2; test: In vitro sensitivity test (agar dilution method); assay type: cell-based; settings: 37°C, 20 to 24 hours
Experimental: as §1, §2

[5] = test system: Hemophilus paragallinarum (H.pg) S-1; test: In vitro sensitivity test (agar dilution method); assay type: cell-based
Experimental: as §1, §2

[6] = test system: Bordetella bronchiseptica (B.br) ABU-1; test: In vitro sensitivity test (agar dilution method); assay type: cell-based; settings: 37°C, 20 to 24 hours
Experimental: as §1, §2

[7] = test system: Escherichia coli (E.coli) E-17, chicken-origin strain isolated from the field; test: In vitro sensitivity test (agar dilution method); assay type: cell-based; settings: 37°C, 20 to 24 hours
Experimental: as §1, §2

[8] = test system: Hemophilus pleuropneumonia (H.pp) M-1; test: In vitro sensitivity test (agar dilution method); assay type: cell-based; settings: 37°C, 20 hours, 10 % CO₂
Experimental: as §1, §2

[9] = test system: Salmonella typhimurium (S.typhi) 13311; test: In vitro sensitivity test (agar dilution method); assay type: cell-based; settings: 37°C, 20 to 24 hours
Experimental: as §1, §2

[10] = test system: Staphylococcus aureus (S.au) 209P; test: In vitro sensitivity test (agar dilution method); assay type: cell-based; settings: 37°C, 20 to 24 hours
Experimental: as §1, §2

[11] = test system: TS-resistant strain of MG; assay type: in vivo, chicken; settings: for Infectious index Left air sack + / Infectious index Left air sack ++ / Infectious index Left air sack +++ / Infectious index Left air sack - / Infectious index Right air sack + / Infectious index Right air sack ++ / Infectious index Right air sack +++ / Infectious index Right air sack -: count of fowl; for Infectious index Left air sack + / Infectious index Left air sack ++ / Infectious index Left air sack +++ / Infectious index Left air sack - / Infectious index Right air sack + / Infectious index Right air sack ++ / Infectious index Right air sack +++ / Infectious index Right air sack - / Number of fowl having air sack lesions: 10-days chicken
[12] = test system: Mycoplasma gallisepticum (MG) S6; test: In vitro sensitivity test (liquid dilution method); assay type: cell-based; settings: 37°C, 7 days
Experimental: as §1, §2

[13] = test system: Mycoplasma hyopneumoniae (Mh) ST-11; test: In vitro sensitivity test (liquid dilution method); assay type: cell-based; settings: 37°C, 7 days
Experimental: as §1, §2

[14] = test system: Mycoplasma gallisepticum (MG) T-7-T, TS-resistant strain isolated from the field; test: In vitro sensitivity test (liquid dilution method); assay type: cell-based; settings: 37°C, 7 days
Experimental: as §1, §2

[15] = agar dilution, 37°C, 20 hours, 10 % CO₂
[16] = oral 3.13 mg/kg, 3.0 x 10³ CFU/fowl
[17] = oral 6.25 mg/kg, 3.0 x 10³ CFU/fowl
[18] = oral 12.5 mg/kg, 3.0 x 10³ CFU/fowl
[19] = oral 3.13 mg/kg, 1.2 x 10³ CFU/fowl
[20] = oral 6.25 mg/kg, 1.2 x 10³ CFU/fowl
[21] = oral 12.5 mg/kg, 1.2 x 10³ CFU/fowl
[22] = oral 25.0 mg/kg, 1.2 x 10³ CFU/fowl

CN[C@H]1CCC[C@H]2CN(c3c(F)cc4c(=O)c(C(=O)O)cn(C5CC5)c4c3F)CC[C@H]21.Cl (relative stereo) [I-7, 1-cyclopropyl-6,8-difluoro-7-[(1R*,6R*,7S*)-7-methylamino-3-azabicyclo[4.4.0]decan-3-yl]-1,4-dihydro-4-oxo-3-quinolinecarboxylic acid hydrochloride]
5: Infectious index Left air sack - [11, 16] | Infectious index Left air sack - [11, 17] | Infectious index Left air sack - [11, 18] | Number of fowl having air sack lesions [11, 17] | Number of fowl having air sack lesions [11, 18]
0.05 µg/mL: In vitro Sensitivity Test MG S6 [12]
0.1 µg/mL: In vitro Sensitivity Test Mh ST-11 [13]
>3.13 µg/mL: In vitro Sensitivity Test H.pg 221 [3, 15] | In vitro Sensitivity Test H.pg S-1 [5, 15]
4: Number of fowl having air sack lesions [11, 16]
0.39 µg/ml: In vitro Sensitivity Test E.coli E-17 [7]
0: Infectious index Left air sack + [11, 16] | Infectious index Left air sack ++ [11, 16] | Infectious index Left air sack +++ [11, 16] | Infectious index Right air sack + [11, 16] | Infectious index Left air sack ++ [11, 17] | Infectious index Left air sack +++ [11, 17] | Infectious index Right air sack - [11, 17] | Infectious index Left air sack + [11, 18] | Infectious index Left air sack ++ [11, 18] | Infectious index Left air sack +++ [11, 18] | Infectious index Right air sack - [11, 18]
6.25 µg/mL: In vitro Sensitivity Test P.pis No. 2 [1] | In vitro Sensitivity Test B.br ABU-1 [6]
1: Infectious index Right air sack +++ [11, 16] | Infectious index Right air sack - [11, 16] | Infectious index Left air sack + [11, 17] | Infectious index Right air sack + [11, 17] | Infectious index Right air sack +++ [11, 17] | Infectious index Right air sack ++ [11, 18]
0.39 µg/mL: In vitro Sensitivity Test E.coli JC-2 [4]
0.2 µg/mL: In vitro Sensitivity Test S.typhi 13311 [9] | In vitro Sensitivity Test MG T-7-T [14]
2: Infectious index Right air sack + [11, 18] | Infectious index Right air sack +++ [11, 18]
0.78 µg/mL: In vitro Sensitivity Test H.pp M-1 [8] | In vitro Sensitivity Test S.au 209P [10]
3.13 µg/mL: In vitro Sensitivity Test Str.sp SNO6119 [2]
3: Infectious index Right air sack ++ [11, 16] | Infectious index Right air sack ++ [11, 17]

CN[C@@H]1CCC[C@H]2[C@@H]1CCN2c1c(F)cc2c(=O)c(C(=O)O)cn(C3CC3)c2c1F (relative stereo) [I-3]
3: Infectious index Right air sack ++ [11, 16] | Infectious index Right air sack ++ [11, 17] | Number of fowl having air sack lesions [11, 16] | Number of fowl having air sack lesions [11, 18]
5: Infectious index Left air sack - [11, 17] | Number of fowl having air sack lesions [11, 17]
1.56 µg/mL: In vitro Sensitivity Test P.pis No. 2 [1] | In vitro Sensitivity Test H.pg 221 [3] | In vitro Sensitivity Test H.pg S-1 [5]
0.1 µg/mL: In vitro Sensitivity Test E.coli JC-2 [4] | In vitro Sensitivity Test S.typhi 13311 [9]
0.2 µg/mL: In vitro Sensitivity Test H.pp M-1 [8] | In vitro Sensitivity Test S.au 209P [10]
0.78 µg/mL: In vitro Sensitivity Test Str.sp SNO6119 [2]
0.025 µg/mL: In vitro Sensitivity Test MG S6 [12]
2: Infectious index Right air sack - [11, 16] | Infectious index Right air sack + [11, 17] | Infectious index Right air sack + [11, 18] | Infectious index Right air sack - [11, 18]
0.05 µg/mL: In vitro Sensitivity Test Mh ST-11 [13] | In vitro Sensitivity Test MG T-7-T [14]
0: Infectious index Left air sack + [11, 16] | Infectious index Left air sack +++ [11, 16] | Infectious index Right air sack + [11, 16] | Infectious index Right air sack +++ [11, 16] | Infectious index Left air sack + [11, 17] | Infectious index Left air sack ++ [11, 17] | Infectious index Left air sack +++ [11, 17] | Infectious index Right air sack +++ [11, 17] | Infectious index Right air sack - [11, 17] | Infectious index Left air sack ++ [11, 18] | Infectious index Left air sack +++ [11, 18] | Infectious index Right air sack +++ [11, 18]
6.25 µg/mL: In vitro Sensitivity Test B.br ABU-1 [6]
4: Infectious index Left air sack - [11, 16] | Infectious index Left air sack - [11, 18]
0.1 µg/ml: In vitro Sensitivity Test E.coli E-17 [7]
1: Infectious index Left air sack ++ [11, 16] | Infectious index Left air sack + [11, 18] | Infectious index Right air sack ++ [11, 18]

CNC[C@@]12CCC[C@@H]1CN(c1cc3c(cc1F)c(=O)c(C(=O)O)cn3C1CC1)C2 (relative stereo) [I-1, 7-[(1R*,5S*)-1-methylaminomethyl-3-azabicyclo[3.3.0]octan-3-yl]-1-cyclopropyl-6-fluoro-1,4-dihydro-4-oxo-3-quinolinecarboxylic acid]
0.39 µg/mL: In vitro Sensitivity Test H.pp M-1 [8]
5: Infectious index Left air sack - [11, 20] | Infectious index Left air sack - [11, 21] | Infectious index Left air sack - [11, 22] | Infectious index Right air sack - [11, 22] | Number of fowl having air sack lesions [11, 19]
4: Infectious index Left air sack - [11, 19] | Infectious index Right air sack - [11, 21] | Number of fowl having air sack lesions [11, 20]
0.0125 µg/mL: In vitro Sensitivity Test MG S6 [12]
0: Infectious index Left air sack ++ [11, 19] | Infectious index Left air sack +++ [11, 19] | Infectious index Right air sack - [11, 19] | Infectious index Left air sack + [11, 20] | Infectious index Left air sack ++ [11, 20] | Infectious index Left air sack +++ [11, 20] | Infectious index Right air sack +++ [11, 20] | Infectious index Left air sack + [11, 21] | Infectious index Left air sack ++ [11, 21] | Infectious index Left air sack +++ [11, 21] | Infectious index Right air sack + [11, 21] | Infectious index Right air sack +++ [11, 21] | Infectious index Left air sack + [11, 22] | Infectious index Left air sack ++ [11, 22] | Infectious index Left air sack +++ [11, 22] | Infectious index Right air sack + [11, 22] | Infectious index Right air sack ++ [11, 22] | Infectious index Right air sack +++ [11, 22] | Number of fowl having air sack lesions [11, 22]
12.5 µg/mL: In vitro Sensitivity Test B.br ABU-1 [6]
nearly equal potency to ERFX: antimicrobial activity compared with ERFX ([11]; in vivo, po)
3: Infectious index Right air sack ++ [11, 19] | Infectious index Right air sack + [11, 20]
0.2 µg/mL: In vitro Sensitivity Test E.coli JC-2 [4] | In vitro Sensitivity Test S.typhi 13311 [9]
1: Infectious index Left air sack + [11, 19] | Infectious index Right air sack + [11, 19] | Infectious index Right air sack +++ [11, 19] | Infectious index Right air sack ++ [11, 20] | Infectious index Right air sack - [11, 20] | Infectious index Right air sack ++ [11, 21] | Number of fowl having air sack lesions [11, 21]
0.025 µg/mL: In vitro Sensitivity Test S.au 209P [10] | In vitro Sensitivity Test MG T-7-T [14]
0.2 µg/ml: In vitro Sensitivity Test E.coli E-17 [7]
0.78 µg/mL: In vitro Sensitivity Test P.pis No. 2 [1] | In vitro Sensitivity Test Str.sp SNO6119 [2] | In vitro Sensitivity Test H.pg 221 [3, 15] | In vitro Sensitivity Test H.pg S-1 [5, 15]
